According to patent US20110136666A1, “CHEMICAL COMPOUNDS” (SYNGENTA CROP PROTECTION, INC., priority 2008, published 2011):

Test system: Alopecurus myosuroides (ALOMY)
Assay: Pre-emergence biological efficacy, glasshouse pot test
Assay type: in vivo
Details: 312 h, 1000 g/ha, after 13 days, 100=total damage, 0=no damage, read-out: Percentage damage caused to weed species ALOMY
Description: (§1) Seeds of Alopecurus myosuroides (ALOMY), Setaria faberi (SETFA), Echinochloa crus-galli (ECHCG), Solanum nigrum (SOLNI), Amaranthus retroflexus (AMARE) and Ipomea hederaceae (IPOHE) were sown in standard soil in pots. After cultivation for one day under controlled conditions in a glasshouse (at 24/16° C., day/night; 14 hours light; 65% humidity), the plants were sprayed with an aqueous spray solution derived from the formulation of the technical active ingredient in acetone/water (50:50) solution containing 0.5% Tween 20 (polyoxyethylene sorbitan monolaurate, CAS RN 9005-64-5) to give a final dose of 250 or 1000 g/ha of test compound.
(§2) The test plants were then grown under controlled conditions in the glasshouse (at 24/16° C., day/night; 14 hours light; 65% humidity) and watered twice daily. After 13 days the test was evaluated (100=total damage to plant; 0=no damage to plant).

Structure (SMILES)	pest or weed control at 1000 g/ha [%]
COC(=O)c1nc(-c2cncc3ccccc23)nc(N)c1Cl [Compound 2-196, 4-Amino-5-chloro-2-isoquinolin-4-yl-6-methoxycarbonyl pyrimidine]	0
CCOC(=O)c1nc(-c2ccc(Cl)s2)nc(N)c1Cl [Compound 3-2, 4-amino-5-chloro-2-(5-chlorothiophen-2-yl)-6-ethoxycarbonyl-pyrimidine]	0
CCOC(=O)c1nc(-c2ccc(C(F)(F)F)cn2)nc(N)c1Cl [Compound 3-150, 4-amino-5-chloro-6-ethoxycarbonyl-2-(5-trifluoromethylpyridin-2-yl)-pyrimidine]	0

Test system: Amaranthus retroflexus (AMARE)
Assay: as above
Assay type: in vivo
Details: 312 h, 1000 g/ha, after 13 days, 100=total damage, 0=no damage, read-out: Percentage damage caused to weed species AMARE
Description: as §1, §2

Structure (SMILES)	pest or weed control at 1000 g/ha [%]
COC(=O)c1nc(-c2cncc3ccccc23)nc(N)c1Cl [Compound 2-196, 4-Amino-5-chloro-2-isoquinolin-4-yl-6-methoxycarbonyl pyrimidine]	0
CCOC(=O)c1nc(-c2ccc(Cl)s2)nc(N)c1Cl [Compound 3-2, 4-amino-5-chloro-2-(5-chlorothiophen-2-yl)-6-ethoxycarbonyl-pyrimidine]	30
CCOC(=O)c1nc(-c2ccc(C(F)(F)F)cn2)nc(N)c1Cl [Compound 3-150, 4-amino-5-chloro-6-ethoxycarbonyl-2-(5-trifluoromethylpyridin-2-yl)-pyrimidine]	0

Test system: Echinochloa crus-galli (ECHCG)
Assay: as above
Assay type: in vivo
Details: 312 h, 1000 g/ha, after 13 days, 100=total damage, 0=no damage, read-out: Percentage damage caused to weed species ECHCG
Description: as §1, §2

Structure (SMILES)	pest or weed control at 1000 g/ha [%]
COC(=O)c1nc(-c2cncc3ccccc23)nc(N)c1Cl [Compound 2-196, 4-Amino-5-chloro-2-isoquinolin-4-yl-6-methoxycarbonyl pyrimidine]	0
CCOC(=O)c1nc(-c2ccc(Cl)s2)nc(N)c1Cl [Compound 3-2, 4-amino-5-chloro-2-(5-chlorothiophen-2-yl)-6-ethoxycarbonyl-pyrimidine]	0
CCOC(=O)c1nc(-c2ccc(C(F)(F)F)cn2)nc(N)c1Cl [Compound 3-150, 4-amino-5-chloro-6-ethoxycarbonyl-2-(5-trifluoromethylpyridin-2-yl)-pyrimidine]	0

Test system: Ipomea hederaceae (IPOHE)
Assay: as above
Assay type: in vivo
Details: Ipomoea hederacea, 312 h, 1000 g/ha, after 13 days, 100=total damage, 0=no damage, read-out: Percentage damage caused to weed species IPOHE
Description: as §1, §2

Structure (SMILES)	pest or weed control at 1000 g/ha [%]
COC(=O)c1nc(-c2cncc3ccccc23)nc(N)c1Cl [Compound 2-196, 4-Amino-5-chloro-2-isoquinolin-4-yl-6-methoxycarbonyl pyrimidine]	0
CCOC(=O)c1nc(-c2ccc(Cl)s2)nc(N)c1Cl [Compound 3-2, 4-amino-5-chloro-2-(5-chlorothiophen-2-yl)-6-ethoxycarbonyl-pyrimidine]	0
CCOC(=O)c1nc(-c2ccc(C(F)(F)F)cn2)nc(N)c1Cl [Compound 3-150, 4-amino-5-chloro-6-ethoxycarbonyl-2-(5-trifluoromethylpyridin-2-yl)-pyrimidine]	0

Test system: Setaria faberi (SETFA)
Assay: as above
Assay type: in vivo
Details: 312 h, 1000 g/ha, after 13 days, 100=total damage, 0=no damage, read-out: Percentage damage caused to weed species SETFA
Description: as §1, §2

Structure (SMILES)	pest or weed control at 1000 g/ha [%]
COC(=O)c1nc(-c2cncc3ccccc23)nc(N)c1Cl [Compound 2-196, 4-Amino-5-chloro-2-isoquinolin-4-yl-6-methoxycarbonyl pyrimidine]	0
CCOC(=O)c1nc(-c2ccc(Cl)s2)nc(N)c1Cl [Compound 3-2, 4-amino-5-chloro-2-(5-chlorothiophen-2-yl)-6-ethoxycarbonyl-pyrimidine]	0
CCOC(=O)c1nc(-c2ccc(C(F)(F)F)cn2)nc(N)c1Cl [Compound 3-150, 4-amino-5-chloro-6-ethoxycarbonyl-2-(5-trifluoromethylpyridin-2-yl)-pyrimidine]	0

Test system: Solanum nigrum (SOLNI)
Assay: as above
Assay type: in vivo
Details: 312 h, 1000 g/ha, after 13 days, 100=total damage, 0=no damage, read-out: Percentage damage caused to weed species SOLNI
Description: as §1, §2

Structure (SMILES)	pest or weed control at 1000 g/ha [%]
COC(=O)c1nc(-c2cncc3ccccc23)nc(N)c1Cl [Compound 2-196, 4-Amino-5-chloro-2-isoquinolin-4-yl-6-methoxycarbonyl pyrimidine]	0
CCOC(=O)c1nc(-c2ccc(Cl)s2)nc(N)c1Cl [Compound 3-2, 4-amino-5-chloro-2-(5-chlorothiophen-2-yl)-6-ethoxycarbonyl-pyrimidine]	0
CCOC(=O)c1nc(-c2ccc(C(F)(F)F)cn2)nc(N)c1Cl [Compound 3-150, 4-amino-5-chloro-6-ethoxycarbonyl-2-(5-trifluoromethylpyridin-2-yl)-pyrimidine]	0

Test system: Alopecurus myosuroides (ALOMY)
Assay: Post-emergence biological efficacy, glasshouse pot test
Assay type: in vivo
Details: 312 h, 1000 g/ha, after 13 days, 100=total damage, 0=no damage, read-out: Percentage damage caused to weed species ALOMY
Description: as §1, with “8 days” for “one day”
(§3) The test plants were then grown on under controlled conditions in a glasshouse (at 24/16° C., day/night; 14 hours light; 65% humidity) and watered twice daily. After 13 days the test was evaluated (100=total damage to plant; 0=no damage to plant).

Structure (SMILES)	pest or weed control at 1000 g/ha [%]
COC(=O)c1nc(-c2cncc3ccccc23)nc(N)c1Cl [Compound 2-196, 4-Amino-5-chloro-2-isoquinolin-4-yl-6-methoxycarbonyl pyrimidine]	0
CCOC(=O)c1nc(-c2ccc(Cl)s2)nc(N)c1Cl [Compound 3-2, 4-amino-5-chloro-2-(5-chlorothiophen-2-yl)-6-ethoxycarbonyl-pyrimidine]	0
CCOC(=O)c1nc(-c2ccc(C(F)(F)F)cn2)nc(N)c1Cl [Compound 3-150, 4-amino-5-chloro-6-ethoxycarbonyl-2-(5-trifluoromethylpyridin-2-yl)-pyrimidine]	0

Test system: Amaranthus retroflexus (AMARE)
Assay: as above
Assay type: in vivo
Details: 312 h, 1000 g/ha, after 13 days, 100=total damage, 0=no damage, read-out: Percentage damage caused to weed species AMARE
Description: as §1, with “8 days” for “one day”
as §3

Structure (SMILES)	pest or weed control at 1000 g/ha [%]
COC(=O)c1nc(-c2cncc3ccccc23)nc(N)c1Cl [Compound 2-196, 4-Amino-5-chloro-2-isoquinolin-4-yl-6-methoxycarbonyl pyrimidine]	0
CCOC(=O)c1nc(-c2ccc(Cl)s2)nc(N)c1Cl [Compound 3-2, 4-amino-5-chloro-2-(5-chlorothiophen-2-yl)-6-ethoxycarbonyl-pyrimidine]	80
CCOC(=O)c1nc(-c2ccc(C(F)(F)F)cn2)nc(N)c1Cl [Compound 3-150, 4-amino-5-chloro-6-ethoxycarbonyl-2-(5-trifluoromethylpyridin-2-yl)-pyrimidine]	0

Test system: Echinochloa crus-galli (ECHCG)
Assay: as above
Assay type: in vivo
Details: 312 h, 1000 g/ha, after 13 days, 100=total damage, 0=no damage, read-out: Percentage damage caused to weed species ECHCG
Description: as §1, with “8 days” for “one day”
as §3

Structure (SMILES)	pest or weed control at 1000 g/ha [%]
COC(=O)c1nc(-c2cncc3ccccc23)nc(N)c1Cl [Compound 2-196, 4-Amino-5-chloro-2-isoquinolin-4-yl-6-methoxycarbonyl pyrimidine]	0
CCOC(=O)c1nc(-c2ccc(Cl)s2)nc(N)c1Cl [Compound 3-2, 4-amino-5-chloro-2-(5-chlorothiophen-2-yl)-6-ethoxycarbonyl-pyrimidine]	0
CCOC(=O)c1nc(-c2ccc(C(F)(F)F)cn2)nc(N)c1Cl [Compound 3-150, 4-amino-5-chloro-6-ethoxycarbonyl-2-(5-trifluoromethylpyridin-2-yl)-pyrimidine]	0

Test system: Ipomea hederaceae (IPOHE)
Assay: as above
Assay type: in vivo
Details: Ipomoea hederacea, 312 h, 1000 g/ha, after 13 days, 100=total damage, 0=no damage, read-out: Percentage damage caused to weed species IPONE
Description: as §1, with “8 days” for “one day”
as §3

Structure (SMILES)	pest or weed control at 1000 g/ha [%]
COC(=O)c1nc(-c2cncc3ccccc23)nc(N)c1Cl [Compound 2-196, 4-Amino-5-chloro-2-isoquinolin-4-yl-6-methoxycarbonyl pyrimidine]	0
CCOC(=O)c1nc(-c2ccc(Cl)s2)nc(N)c1Cl [Compound 3-2, 4-amino-5-chloro-2-(5-chlorothiophen-2-yl)-6-ethoxycarbonyl-pyrimidine]	50
CCOC(=O)c1nc(-c2ccc(C(F)(F)F)cn2)nc(N)c1Cl [Compound 3-150, 4-amino-5-chloro-6-ethoxycarbonyl-2-(5-trifluoromethylpyridin-2-yl)-pyrimidine]	0

Test system: Setaria faberi (SETFA)
Assay: as above
Assay type: in vivo
Details: 312 h, 1000 g/ha, after 13 days, 100=total damage, 0=no damage, read-out: Percentage damage caused to weed species SETFA
Description: as §1, with “8 days” for “one day”
as §3

Structure (SMILES)	pest or weed control at 1000 g/ha [%]
COC(=O)c1nc(-c2cncc3ccccc23)nc(N)c1Cl [Compound 2-196, 4-Amino-5-chloro-2-isoquinolin-4-yl-6-methoxycarbonyl pyrimidine]	0
CCOC(=O)c1nc(-c2ccc(Cl)s2)nc(N)c1Cl [Compound 3-2, 4-amino-5-chloro-2-(5-chlorothiophen-2-yl)-6-ethoxycarbonyl-pyrimidine]	0
CCOC(=O)c1nc(-c2ccc(C(F)(F)F)cn2)nc(N)c1Cl [Compound 3-150, 4-amino-5-chloro-6-ethoxycarbonyl-2-(5-trifluoromethylpyridin-2-yl)-pyrimidine]	0

Test system: Solanum nigrum (SOLNI)
Assay: as above
Assay type: in vivo
Details: 312 h, 1000 g/ha, after 13 days, 100=total damage, 0=no damage, read-out: Percentage damage caused to weed species SOLNI
Description: as §1, with “8 days” for “one day”
as §3

Structure (SMILES)	pest or weed control at 1000 g/ha [%]
COC(=O)c1nc(-c2cncc3ccccc23)nc(N)c1Cl [Compound 2-196, 4-Amino-5-chloro-2-isoquinolin-4-yl-6-methoxycarbonyl pyrimidine]	0
CCOC(=O)c1nc(-c2ccc(Cl)s2)nc(N)c1Cl [Compound 3-2, 4-amino-5-chloro-2-(5-chlorothiophen-2-yl)-6-ethoxycarbonyl-pyrimidine]	70
CCOC(=O)c1nc(-c2ccc(C(F)(F)F)cn2)nc(N)c1Cl [Compound 3-150, 4-amino-5-chloro-6-ethoxycarbonyl-2-(5-trifluoromethylpyridin-2-yl)-pyrimidine]	0
